Source: EP4603105A1, “PHARMACEUTICAL COMPOSITION CONTAINING CYCLIC COMPOUND HAVING SELECTIVE KRAS INHIBITORY EFFECT AGAINST HRAS AND NRAS” (CHUGAI SEIYAKU KABUSHIKI KAISHA, priority 2022, dated 2024)
Where a SMILES comes first, the peptide text is derived from it. Bridges are numbered along the chain shown (N, C = ends). [ ]: non-standard residue; d: D form. The star is where a group is joined. hPhe(3-Cl-4-CF3) = N[C@@H](CCc1ccc(C(F)(F)F)c(Cl)c1)C(=O)O; NPrPhe(4-CF3) = CCCN[C@@H](Cc1ccc(C(F)(F)F)cc1)C(=O)O; NMeGly(cPent) = CN[C@H](C(=O)O)C1CCCC1; Hyp = O=C(O)[C@@H]1C[C@@H](O)CN1; NEtLeu = CCN[C@@H](CC(C)C)C(=O)O; NMeD = CN[C@@H](CC(=O)O)C(=O)O; NMeL = CN[C@@H](CC(C)C)C(=O)O; Morpholide = C1CN(*)CCO1; NMeA = CN[C@@H](C)C(=O)O; Aze = O=C(O)[C@@H]1CCN1; Ac4c = NC1(C(=O)O)CCC1; Sar = CNCC(=O)O

Assays:
HRAS wild-type protein = HRAS wild-type protein (Homo sapiens, UniProt P01112); test: Binding to HRAS by surface plasmon resonance (SPR), KD and KD ratio to KRAS
Outline: (§1)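 Single-cycle kinetics on GDP-loaded biotin-Avi RAS captured to ~100–300 RU; 75 s ascending injections, 100 µL/min, 30°C. HBS pH 7.4 + 10 mM MgCl2/10 µM GDP/4% DMSO. 1:1 fit, KD.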

[1] = test system: human lung cancer strain NCI-H441; assay type: cell-based
Outline: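 Proliferation was scored by […] measured after the reagent was added to cultures kept at 37°C in 5% carbon dioxide.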

[2] = target: GDP-bound NRAS wild-type protein (Homo sapiens, UniProt P01111); test: Binding to NRAS by surface plasmon resonance (SPR), KD and KD ratio to KRAS
Outline: as §1

[3] = ratio of the KD value with respect to HRAS wild-type protein to the KD value with respect to KRAS
[4] = ratio of the KD value with respect to GDP-bound NRAS wild-type protein to the KD value with respect to KRAS
[5] = ratio of KD for HRAS wild-type protein to KD for KRAS
[6] = ratio of KD for GDP-bound NRAS wild-type protein to KD for KRAS

Chain of GDP-bound NRAS wild-type protein (P01111 whole entry): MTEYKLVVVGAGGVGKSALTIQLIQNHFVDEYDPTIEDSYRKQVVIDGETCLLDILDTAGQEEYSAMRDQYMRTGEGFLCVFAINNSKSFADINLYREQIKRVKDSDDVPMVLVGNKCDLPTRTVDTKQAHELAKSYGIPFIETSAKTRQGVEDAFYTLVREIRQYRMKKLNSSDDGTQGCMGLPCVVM
Chain of HRAS wild-type protein (P01112 whole entry): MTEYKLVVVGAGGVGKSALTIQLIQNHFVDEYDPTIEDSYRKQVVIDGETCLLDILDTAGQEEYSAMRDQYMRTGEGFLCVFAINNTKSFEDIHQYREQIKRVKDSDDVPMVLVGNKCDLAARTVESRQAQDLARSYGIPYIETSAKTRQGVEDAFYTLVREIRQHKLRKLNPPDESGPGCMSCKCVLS

| SMILES | HRAS /KRAS (HRAS wild-type protein; ratio of KD value for HRAS wild-type protein to KD value for KRAS (SPR)) | IC50 [1] [µM] | NRAS /KRAS ([2]; ratio of KD value for GDP-bound NRAS wild-type protein to KD value for KRAS (SPR)) | HRAS /KRAS (HRAS wild-type protein; [3]) | NRAS /KRAS [2, 4] | HRAS /KRAS (HRAS wild-type protein; [5]) | NRAS /KRAS [2, 6] |
| --- | --- | --- | --- | --- | --- | --- | --- |
| CCCN(C)C(=O)[C@@H]1CC(=O)N(C)[C@@H](COC)C(=O)N[C@@H]([C@@H](C)CC)C(=O)N(C)CC(=O)N(C)[C@H]2C/C=C\CCN(C2=O)[C@@H](Cc2ccc(C(F)(F)F)cc2)C(=O)N(C)CC(=O)N[C@@H](CCc2cc(F)c(C(F)(F)F)c(F)c2)C(=O)N2C[C@H](OCC)C[C@H]2C(=O)NC2(CC(C)(C)C2)C(=O)N(C)[C@@H](C2CCCC2)C(=O)N1C [PP1672] | A (a compound having 10 or more and less than 20 is denoted as A) | 0.006 | A (a compound having 10 or more and less than 20 is denoted as A) | – | – | – | – |
| CCCN1C(=O)CN(C)C(=O)CN(C)C(=O)[C@H]([C@@H](C)CC)NC(=O)[C@H](CC(C)C)N(CC)C(=O)C[C@@H](C(=O)N2CCOCC2)N(C)C(=O)[C@H](C2CCCC2)N(C)C(=O)C2(CCC2)NC(=O)[C@@H]2CCCN2C(=O)[C@H](CCc2ccc(C(F)(F)F)c(Cl)c2)NC(=O)CN(C)C(=O)[C@@H]1Cc1ccc(C(F)(F)F)cc1 [PP1946] ([NEtLeu]I[Sar][Sar][NPrPhe(4-CF3)][Sar][hPhe(3-Cl-4-CF3)]P[Ac4c][NMeGly(cPent)][NMeD]-Morpholide; lactam N-11) | – | 0.0152 | – | C (A compound having a KD ratio of 0.1 or more and less than 3 is denoted as C) | B (a compound having 3 or more and less than 10 is denoted as B) | – | – |
| CCC(CC)[C@H]1C(=O)N(C)[C@H](C(=O)N(C)C)CC(=O)N(C)[C@H]2CCC/C=C/c3ccc(cc3)C[C@@H](C(=O)N(C)CC(=O)N[C@@H](CCc3cc(F)c(C(F)(F)F)c(F)c3)C(=O)N3CCC[C@H]3C(=O)NC3(CC(C)(C)C3)C(=O)N1C)N1CC/C=C\C[C@@H](C1=O)N(C)C(=O)CN(C)C(=O)[C@H]([C@@H](C)CC)NC2=O [PP2600] | – | 0.0029 | – | – | – | A (a compound having 10 or more and less than 20 is denoted as A) | A (a compound having 10 or more and less than 20 is denoted as A) |
| CCO[C@@H]1C[C@H]2C(=O)NC3(CCC3)C(=O)N(C)[C@@H](C3CCCC3)C(=O)N(C)[C@H](C(=O)N(C)C)CC(=O)N(C)[C@H]3CCCCCc4ccc(cc4)C[C@@H](C(=O)N(C)CC(=O)N[C@@H](CCc4cc(F)c(C(F)(F)F)c(F)c4)C(=O)N2C1)N1CC/C=C\C[C@@H](C1=O)N(C)C(=O)CN(C)C(=O)[C@H]([C@@H](C)CC)NC3=O [PP2261] | – | 0.0166 | – | A (a compound having 10 or more and less than 20 is denoted as A) | A (a compound having 10 or more and less than 20 is denoted as A) | – | – |
| CC[C@H](C)[C@@H]1NC(=O)[C@H](CC(C)C)N(C)C(=O)C[C@@H](C(=O)N2CCOCC2)N(C)C(=O)[C@H](C2CCCC2)N(C)C(=O)C2(CCCC2)NC(=O)[C@@H]2CCCN2C(=O)[C@H](CCc2ccc(C(F)(F)F)c(Cl)c2)NC(=O)CN(C)C(=O)[C@H](Cc2ccc(OC)cc2)N2CCCCC[C@@H](C2=O)N(C)C(=O)CN(C)C1=O [PP0614] | – | 0.11 | – | B (a compound having 3 or more and less than 10 is denoted as B) | B (a compound having 3 or more and less than 10 is denoted as B) | – | – |
| CCCN1C(=O)[C@@H]2CCN2C(=O)[C@H](C)N(C)C(=O)[C@H]([C@@H](C)CC)NC(=O)[C@H](CC(C)C)N(C)C(=O)C[C@@H](C(=O)N2CCOCC2)NC(=O)[C@H](C2CCCC2)N(C)C(=O)C2(CCC2)NC(=O)[C@@H]2C[C@@H](OCC)CN2C(=O)[C@H](CCc2ccc(C(F)(F)F)c(Cl)c2)NC(=O)CN(C)C(=O)[C@@H]1Cc1ccc(C(F)(F)F)cc1 [PP0348] ([NMeL]I[NMeA][Aze][NPrPhe(4-CF3)][Sar][hPhe(3-Cl-4-CF3)][Hyp](Et)[Ac4c][NMeGly(cPent)]D-Morpholide; lactam N-11) | – | 0.0151 | – | – | – | B (a compound having 3 or more and less than 10 is denoted as B) | C (A compound having a KD ratio of 0.1 or more and less than 3 is denoted as C) |
